Measurements taken from PMC11984924, “Dipeptidic Phosphonates: Potent Inhibitors of Pseudomonas aeruginosa Elastase B Showing Efficacy in a Murine Keratitis Model” (Advanced Science, 2025).
“And” between values parts separate entries of the source, which are not always exact repeats. Equal values may be shown once.

Tests used:
LasB = target: T1, LasB (Pseudomonas aeruginosa, UniProt Q02RJ6); test: In vitro LasB inhibition assay; type: biochemical; conditions: IC50 LasB inhibition
T1 construct: made in house
T1 sequence (Q02RJ6 198-498): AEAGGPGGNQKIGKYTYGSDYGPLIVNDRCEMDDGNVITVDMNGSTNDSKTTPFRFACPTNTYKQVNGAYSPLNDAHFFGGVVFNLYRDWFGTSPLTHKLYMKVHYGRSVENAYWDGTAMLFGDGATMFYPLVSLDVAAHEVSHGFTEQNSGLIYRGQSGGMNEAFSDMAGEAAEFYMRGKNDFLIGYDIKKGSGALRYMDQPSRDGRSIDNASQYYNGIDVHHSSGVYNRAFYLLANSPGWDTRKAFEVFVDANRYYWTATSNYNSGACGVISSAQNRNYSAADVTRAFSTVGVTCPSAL
Experimental: 3.1 In vitro inhibition assays
LasB was expressed and purified as described previously.[3] In vitro inhibition assays (LasB,
MMPs, TACE). All in vitro inhibition assays were performed as described previously.[10] […]
Fluorescence signals were measured using a CLARIOstar plate reader (BMG
Labtech, Ortenberg, Germany). […]

44 key molecular targets = test: SafetyScreen44 in vitro panel (whole panel); set-up: species or system human; conditions: 100 µM
Description: (§1) Moreover, we explored the safety profile of frontrunner (R)‐30 in more detail in order to detect additional crucial off‐target interactions. For this purpose, we employed the SafetyScreen44 in vitro panel comprising selected binding, inhibition and uptake assays.^[ [35] ^] The panel is a specialized pharmacological profiling tool that tests compounds against 44 key molecular targets, aiming to identify potential safety risks early in drug discovery. […]
(§2) The off-target Safety Screen44TM was performed by the CRO Eurofins Cerep SA (Celle-
(§3) L'Evescault, France) according to their protocols.[13] […]
(§4) MMP-1 MMP-2 MMP-3 TACE (ADAM17)
(§5) Compound [% inhibition at [% inhibition at [% inhibition at [% inhibition at 100

hERG potassium channel = target: T2, hERG potassium channel (Homo sapiens, UniProt Q12809); test: SafetyScreen44: hERG binding
T2 construct: Eurofins Cerep SA (CRO)
T2 sequence (Q12809 whole entry): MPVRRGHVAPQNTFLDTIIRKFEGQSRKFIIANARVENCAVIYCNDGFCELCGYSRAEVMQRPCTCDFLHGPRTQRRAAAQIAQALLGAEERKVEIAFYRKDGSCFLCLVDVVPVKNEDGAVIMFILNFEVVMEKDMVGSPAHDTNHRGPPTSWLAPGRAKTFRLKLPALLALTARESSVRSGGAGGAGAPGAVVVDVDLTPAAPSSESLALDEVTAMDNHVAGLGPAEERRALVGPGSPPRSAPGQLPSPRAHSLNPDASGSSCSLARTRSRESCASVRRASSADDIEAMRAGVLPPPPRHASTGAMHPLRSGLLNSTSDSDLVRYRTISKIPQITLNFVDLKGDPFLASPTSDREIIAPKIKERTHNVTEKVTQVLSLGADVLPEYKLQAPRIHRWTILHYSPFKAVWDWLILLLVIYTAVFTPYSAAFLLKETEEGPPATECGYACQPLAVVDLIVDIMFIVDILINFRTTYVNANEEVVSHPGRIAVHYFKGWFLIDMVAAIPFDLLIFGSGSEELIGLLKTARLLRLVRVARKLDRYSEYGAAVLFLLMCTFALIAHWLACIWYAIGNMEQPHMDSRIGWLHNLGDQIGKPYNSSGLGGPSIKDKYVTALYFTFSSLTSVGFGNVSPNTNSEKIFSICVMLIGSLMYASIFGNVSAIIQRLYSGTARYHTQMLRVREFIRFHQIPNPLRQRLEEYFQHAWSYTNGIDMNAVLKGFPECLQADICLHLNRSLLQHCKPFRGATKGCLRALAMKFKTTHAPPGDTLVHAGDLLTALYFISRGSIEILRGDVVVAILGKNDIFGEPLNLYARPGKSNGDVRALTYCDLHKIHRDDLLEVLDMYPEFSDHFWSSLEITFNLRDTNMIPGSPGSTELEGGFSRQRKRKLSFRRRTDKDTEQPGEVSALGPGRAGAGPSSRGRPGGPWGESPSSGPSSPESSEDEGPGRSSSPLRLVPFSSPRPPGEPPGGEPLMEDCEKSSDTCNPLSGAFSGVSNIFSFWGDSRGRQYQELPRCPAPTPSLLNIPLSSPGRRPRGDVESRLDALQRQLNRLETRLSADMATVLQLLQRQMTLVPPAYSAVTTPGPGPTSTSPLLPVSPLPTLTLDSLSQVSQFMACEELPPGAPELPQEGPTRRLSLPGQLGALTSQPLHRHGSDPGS
Description: as §1, §2, §3, §4, §5

HepG2 cells = test: Cytotoxicity HepG2; type: cell-based; conditions: Homo sapiens, HepG2, read-out: HepG2 % inhibition at 100 µM (metabolic activity), 48 hours
Experimental: (§6) HepG2 (human hepatocellular carcinoma), HEK293 (human embryonal kidney) and A549
(§7) (human lung carcinoma) cells (2x10^5 cells per well) were seeded in 24-well in flat-bottomed
(§8) plates. Culturing of cells, incubations and OD measurements were performed as described
(§9) previously with small modifications.[14] Twenty-four hours after seeding the cells the incubation
(§10) was started by the addition of compounds in a final DMSO concentration of 1%. The living cell
(§11) mass was determined after 48 hours in a PHERAstar microplate reader (BMG labtech,
(§12) Ortenberg, Germany). Two independent measurements were performed for each compound.

A549 cells = test: Cytotoxicity A549; type: cell-based; conditions: Homo sapiens, A549, read-out: A549 % inhibition at 100 µM (metabolic activity), 48 hours
Experimental: as §6, §7, §8, §9, §10, §11, §12

[1] = tested on: Pseudomonas aeruginosa strain PA14; test: Antibacterial effect on P. aeruginosa PA14 growth; type: cell-based; conditions: PA14, read-out: P. aeruginosa PA14 % inhibition of growth at 100 µM, 18 h, 37 °C
Experimental: Table S14: Food consumption after treatment with (R)-30.
Table S15: Body and organ weights (gram) after treatment with (R)-30.
3.12 Antibacterial effects
As start OD600 of Pseudomonas aeruginosa strain PA14 we used 0.03 in a total volume of 200
µL in lysogeny broth containing the compounds predissolved in DMSO (max. 1%). Final
compound concentrations prepared from serial dilutions ranged from 3.125 to 100 µM (double
values for each concentration). The ODs were determined after addition of the compounds and
again after incubation for 18 h at 37 °C and 200 rpm in 96 well plates (Sarstedt, Nümbrecht,
Germany) using a FLUOStar Omega (BMG labtech, Ortenberg, Germany). Given percent (%)
inhibition values are means of at least two independent determinations. To obtain the values
for a given compound, their ODs were compared to those of DMSO controls. Concerning the […]

[2] = Lipophilicity determination (HPLC-based LogD7.4); type: physicochemical; conditions: C18 column; pH 7.4, HPLC-based
[3] = Stability in mouse liver microsomes; type: in vitro ADME; conditions: read-out: Mouse Liver Microsomes t1/2
Experimental: Samples were stored on ice until the end of the incubation and precipitated protein was removed by centrifugation (15 min, 4 °C, 4,000 g). Concentration of the remaining test […]
compound at the different time points was analyzed by HPLC-MS/MS (TSQ Quantum Access […]
MAX, Thermo Fisher, Dreieich, Germany) and used to determine half -life (t1/2) and intrinsic […]
Species profiling was conducted as above using 0.5 mg/mL pooled mouse, rat or minipig liver microsomes (Xenotech, Kansas City, USA) with 2 mM NADPH and 10 mM MgCl2 and testosterone, verapamil and ketoconazole as reference compounds. […]
Thermo Fisher, Dreieich, Germany) and used to determine half-life (t1/2).
Table S2: Additional in vitro ADMET data for selected dipeptides. n.d.: not determined.
Kinetic Liver S9 Clint [µL/mg/min] Plasma t1/2 [min] LogD7.4 […]
pH 7.4 [µM] Mouse Human Mouse Human

Structure (SMILES)	IC50 (LasB)	SafetyScreen44: number of targets inhibited (44 key molecular targets)	inhibition at 100 µM (hERG potassium channel)	inhibition at 100 µM (HepG2 cells)	inhibition at 100 µM (A549 cells)	inhibition at 100 µM [1]	chromatographic logD [2]	half-life at 1 µM [3]
CC(=O)c1ccc(NC(=O)[C@@H](NC(=O)[C@@H](CC(C)C)P(=O)(O)O)C(C)C)cc1 [(R)‐30]	4 nM and 3.7 nM	ten targets by >50%	79.4%	< 10%	< 10%	< 10%		
CC(C)C[C@H](C(=O)N[C@H](C(=O)Nc1ccc(-n2ccnc2)cc1)C(C)C)P(=O)(O)O [(R)‐36]	10.9 ± 0.3 nM			< 10%	< 10%	< 10%	-0.67	
CC(C)CC(C(=O)N[C@H](C(=O)Nc1ccc(Cl)c(Cl)c1)C1CCC1)P(=O)(O)O (some centres unmarked) [compound 13]	11.9 ± 0.3 nM			< 10%	< 10%	< 10%	-0.58	
CC(C)CC(C(=O)N[C@H](C(=O)Nc1ccc(Cl)c(Cl)c1)C(C)C)P(=O)(O)O (some centres unmarked) [compound 9]				< 10%	< 10%	< 10%		
CC(C)CC(C(=O)N[C@H](C(=O)Nc1ccc(Cl)c(Cl)c1)C1CCCCC1)P(=O)(O)O (some centres unmarked) [compound 14]	12.4 ± 0.3 nM			13%	< 10%	< 10%	1.14	
CC(=O)c1ccc(NC(=O)[C@@H](NC(=O)C(CC(C)C)P(=O)(O)O)C(C)C)cc1 (some centres unmarked) [compound 30]	5 ± 0.2 nM			< 10%	< 10%	< 10%		> 2 h
